According to ChEMBL document CHEMBL1909046, “DrugMatrix in vitro pharmacology data”:

Columns and labels:
[1] = DRUGMATRIX: Interleukin IL-1 radioligand binding (ligand: [125I] interleukin 1beta); type: cell membranes, Membrane; settings: nih3t3; Not Active = under 50% inhibition at 10 µM
[2] = DRUGMATRIX: ATPase, Na+/K+ enzyme inhibition (substrate: ATP); type: tissue-based, Sus scrofa, Heart; settings: Not Active = under 50% inhibition at 10 µM
[3] = target: T1, Alpha-1A adrenergic receptor (Rattus norvegicus, UniProt P43140); assay: DRUGMATRIX: Alpha-1A adrenergic receptor radioligand binding (ligand: prazosin); type: cell membranes, Wistar, Submaxillary gland, Membrane; settings: Not Active = under 50% inhibition at 10 µM
T1 sequence (P43140 whole entry): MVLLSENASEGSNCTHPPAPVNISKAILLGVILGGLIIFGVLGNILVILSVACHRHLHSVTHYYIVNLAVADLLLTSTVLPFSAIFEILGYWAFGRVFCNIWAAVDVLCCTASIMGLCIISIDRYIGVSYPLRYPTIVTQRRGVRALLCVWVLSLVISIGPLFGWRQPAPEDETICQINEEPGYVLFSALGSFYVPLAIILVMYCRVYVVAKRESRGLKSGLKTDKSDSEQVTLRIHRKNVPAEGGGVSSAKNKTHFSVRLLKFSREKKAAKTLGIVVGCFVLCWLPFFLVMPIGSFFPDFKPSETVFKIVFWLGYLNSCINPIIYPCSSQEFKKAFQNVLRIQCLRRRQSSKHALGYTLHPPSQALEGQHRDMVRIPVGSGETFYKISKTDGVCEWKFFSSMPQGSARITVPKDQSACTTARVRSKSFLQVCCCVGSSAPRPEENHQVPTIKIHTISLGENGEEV

[4] = target: T2, Amine oxidase [flavin-containing] A (Homo sapiens, UniProt P21397); assay: DRUGMATRIX: Monoamine Oxidase MAO-A enzyme inhibition (substrate: Kynuramine); parameters: species or system BTI-TN-5B1-4; settings: bti-tn-5b1-4; Not Active = under 50% inhibition at 10 µM
T2 sequence (P21397 whole entry): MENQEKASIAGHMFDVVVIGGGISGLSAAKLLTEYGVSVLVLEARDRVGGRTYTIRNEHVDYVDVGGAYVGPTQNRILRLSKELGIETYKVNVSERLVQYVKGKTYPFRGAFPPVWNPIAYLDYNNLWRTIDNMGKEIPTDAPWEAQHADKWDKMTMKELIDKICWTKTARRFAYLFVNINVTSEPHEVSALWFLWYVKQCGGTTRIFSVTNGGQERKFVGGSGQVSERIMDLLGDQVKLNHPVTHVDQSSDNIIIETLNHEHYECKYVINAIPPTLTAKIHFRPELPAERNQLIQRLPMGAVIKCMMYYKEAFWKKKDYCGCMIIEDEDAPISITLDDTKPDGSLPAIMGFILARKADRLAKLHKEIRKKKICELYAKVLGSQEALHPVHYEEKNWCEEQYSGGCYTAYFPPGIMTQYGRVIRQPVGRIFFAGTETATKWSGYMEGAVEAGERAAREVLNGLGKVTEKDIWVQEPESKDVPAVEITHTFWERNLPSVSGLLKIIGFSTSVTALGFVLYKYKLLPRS

[5] = DRUGMATRIX: Glutamate, AMPA radioligand binding (ligand: [3H] AMPA); type: cell membranes, Rattus norvegicus, Wistar, Cerebral cortex, Membrane; settings: Not Active = under 50% inhibition at 10 µM
[6] = target: Prostaglandin G/H synthase 1 (Homo sapiens, UniProt P23219); assay: biochemical; type: tissue-based, Platelet;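 also: inhibition of COX-1 enzyme activity, with arachidonic acid supplied as substrate; in other assays of this panel Not Active means under 50% inhibition at 10 µM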
Sequence of Prostaglandin G/H synthase 1 (P23219 whole entry): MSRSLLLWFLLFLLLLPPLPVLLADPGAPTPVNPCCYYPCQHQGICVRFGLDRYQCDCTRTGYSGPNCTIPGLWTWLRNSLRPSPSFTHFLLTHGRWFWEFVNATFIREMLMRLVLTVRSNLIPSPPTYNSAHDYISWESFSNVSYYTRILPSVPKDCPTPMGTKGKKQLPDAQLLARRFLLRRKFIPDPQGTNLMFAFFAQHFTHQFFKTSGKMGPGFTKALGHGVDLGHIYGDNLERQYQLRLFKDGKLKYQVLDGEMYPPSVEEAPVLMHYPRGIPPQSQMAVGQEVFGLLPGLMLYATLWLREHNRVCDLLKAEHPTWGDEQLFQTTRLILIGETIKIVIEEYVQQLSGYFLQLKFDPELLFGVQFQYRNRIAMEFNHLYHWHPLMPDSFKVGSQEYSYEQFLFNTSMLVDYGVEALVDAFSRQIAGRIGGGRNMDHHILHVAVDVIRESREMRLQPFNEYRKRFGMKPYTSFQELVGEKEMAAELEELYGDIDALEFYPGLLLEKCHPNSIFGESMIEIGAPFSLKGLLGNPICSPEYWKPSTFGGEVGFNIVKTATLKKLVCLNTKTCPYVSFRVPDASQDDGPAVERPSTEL

[7] = target: Mitogen-activated protein kinase 14 (Homo sapiens, UniProt Q16539); parameters: species or system Escherichia coli;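 also: inhibition of p38alpha enzyme activity in a biochemical kinase assay, with myelin basic protein serving as substrate; in other assays of this panel Not Active means under 50% inhibition at 10 µM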
Sequence of Mitogen-activated protein kinase 14 (Q16539 whole entry): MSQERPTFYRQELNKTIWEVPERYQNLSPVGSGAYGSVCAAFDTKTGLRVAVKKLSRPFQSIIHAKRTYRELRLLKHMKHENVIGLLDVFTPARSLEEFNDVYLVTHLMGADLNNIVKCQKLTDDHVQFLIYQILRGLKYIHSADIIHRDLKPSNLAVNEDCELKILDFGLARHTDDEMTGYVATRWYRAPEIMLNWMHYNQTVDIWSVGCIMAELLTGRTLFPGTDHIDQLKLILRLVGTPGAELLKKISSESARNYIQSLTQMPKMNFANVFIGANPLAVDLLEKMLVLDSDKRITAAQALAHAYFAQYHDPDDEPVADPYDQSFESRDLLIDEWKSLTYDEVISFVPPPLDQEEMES

[8] = target: T3, 5-hydroxytryptamine receptor 2C (Homo sapiens, UniProt P28335); assay: DRUGMATRIX: Serotonin (5-Hydroxytryptamine) 5-HT2C radioligand binding (ligand: [3H] Mesulergine); type: cell membranes, CHO-K1, Membrane; settings: cho-k1; Not Active = under 50% inhibition at 10 µM
T3 sequence (P28335 whole entry): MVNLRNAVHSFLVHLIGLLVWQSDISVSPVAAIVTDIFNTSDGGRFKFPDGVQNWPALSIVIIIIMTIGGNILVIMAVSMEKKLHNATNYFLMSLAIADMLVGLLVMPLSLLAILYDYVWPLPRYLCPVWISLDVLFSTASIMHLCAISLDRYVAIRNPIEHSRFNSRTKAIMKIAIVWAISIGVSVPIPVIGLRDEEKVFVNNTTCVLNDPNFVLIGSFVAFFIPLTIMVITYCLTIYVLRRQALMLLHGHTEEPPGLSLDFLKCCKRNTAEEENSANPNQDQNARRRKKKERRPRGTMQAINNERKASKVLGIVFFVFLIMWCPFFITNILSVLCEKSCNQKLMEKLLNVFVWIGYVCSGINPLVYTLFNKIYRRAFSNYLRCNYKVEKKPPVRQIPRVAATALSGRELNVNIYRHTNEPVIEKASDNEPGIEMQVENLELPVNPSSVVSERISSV

Calcitonin receptor = target: T4, Calcitonin receptor (Homo sapiens, UniProt P30988); type: cell membranes, Membrane; settings: t47d; also: in other assays of this panel Not Active means under 50% inhibition at 10 µM
T4 sequence (P30988 whole entry): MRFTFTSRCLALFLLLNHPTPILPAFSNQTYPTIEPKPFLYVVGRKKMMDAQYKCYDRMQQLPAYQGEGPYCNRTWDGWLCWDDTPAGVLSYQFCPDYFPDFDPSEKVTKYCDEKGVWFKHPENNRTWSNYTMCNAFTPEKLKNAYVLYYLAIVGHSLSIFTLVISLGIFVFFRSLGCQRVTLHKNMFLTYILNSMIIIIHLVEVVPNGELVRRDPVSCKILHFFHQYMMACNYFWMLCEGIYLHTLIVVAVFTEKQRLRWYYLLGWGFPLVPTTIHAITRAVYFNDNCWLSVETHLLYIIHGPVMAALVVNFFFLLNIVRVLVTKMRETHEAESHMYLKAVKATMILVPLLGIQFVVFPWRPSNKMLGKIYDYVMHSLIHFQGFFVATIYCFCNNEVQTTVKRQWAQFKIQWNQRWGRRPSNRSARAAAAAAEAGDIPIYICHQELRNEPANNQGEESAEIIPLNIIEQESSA

Endothelin-1 receptor = target: T5, Endothelin-1 receptor (Homo sapiens, UniProt P25101); type: cell membranes, Membrane; settings: cho-k1; also: in other assays of this panel Not Active means under 50% inhibition at 10 µM
T5 sequence (P25101 whole entry): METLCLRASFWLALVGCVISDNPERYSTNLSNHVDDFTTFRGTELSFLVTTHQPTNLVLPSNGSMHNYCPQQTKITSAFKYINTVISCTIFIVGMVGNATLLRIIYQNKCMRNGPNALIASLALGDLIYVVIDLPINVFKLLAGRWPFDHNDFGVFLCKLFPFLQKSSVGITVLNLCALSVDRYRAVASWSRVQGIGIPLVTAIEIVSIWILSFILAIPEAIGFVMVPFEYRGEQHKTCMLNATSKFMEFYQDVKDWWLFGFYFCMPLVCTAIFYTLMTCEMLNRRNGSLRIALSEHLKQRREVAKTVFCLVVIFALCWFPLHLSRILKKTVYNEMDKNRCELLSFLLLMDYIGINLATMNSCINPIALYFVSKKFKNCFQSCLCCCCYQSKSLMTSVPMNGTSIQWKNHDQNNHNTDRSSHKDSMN

Row | Structure (SMILES) | IC50 [1] | Ki [1] | IC50 [2] | Ki [2] | IC50 [3] | IC50 [4] | IC50 [5] | Ki [5] | IC50 ([6]; platelet) | IC50 [7] | IC50 [8] | IC50 (Calcitonin receptor) | IC50 (Endothelin-1 receptor) | IC50 ([6]; read-out: IC50) [nM] | Ki (Endothelin-1 receptor)
1 | CO[C@H]1/C=C/O[C@@]2(C)Oc3c(C)c(O)c4c(c3C2=O)C2=NC3(CCN(CC(C)C)CC3)NC2=C(NC(=O)/C(C)=C\C=C\[C@H](C)[C@H](O)[C@@H](C)[C@@H](O)[C@@H](C)[C@H](OC(C)=O)[C@@H]1C)C4=O [RIFABUTIN] | Not Active | Not Active | Not Active | Not Active | Not Active | Not Active | Not Active | Not Active | Not Active | Not Active | Not Active | Not Active | Not Active | – | –
2 | CC(C)c1nc(CN(C)C(=O)N[C@H](C(=O)N[C@@H](Cc2ccccc2)C[C@H](O)[C@H](Cc2ccccc2)NC(=O)OCc2cncs2)C(C)C)cs1 [RITONAVIR] | Not Active | Not Active | Not Active | Not Active | Not Active | Not Active | Not Active | Not Active | Not Active | Not Active | Not Active | Not Active | Not Active | – | –
3 | CC(C)CC(N(C)C)C1(c2ccc(Cl)cc2)CCC1 (stereo unspecified) [SIBUTRAMINE] | Not Active | Not Active | Not Active | Not Active | Not Active | Not Active | Not Active | Not Active | Not Active | Not Active | Not Active | Not Active | Not Active | – | –
4 | [H]/N=C(/N)N[C@H]1[C@H](O)[C@@H](O)[C@H](O[C@@H]2O[C@@H](C)[C@](O)(C=O)[C@H]2O[C@@H]2O[C@@H](CO)[C@H](O)[C@@H](O)[C@@H]2NC)[C@@H](N/C(N)=N\[H])[C@@H]1O [STREPTOMYCIN] | Not Active | Not Active | Not Active | Not Active | Not Active | Not Active | Not Active | Not Active | Not Active | Not Active | Not Active | Not Active | Not Active | – | –
5 | COc1cc(NS(=O)(=O)c2ccc(N)cc2)nc(OC)n1 [SULFADIMETHOXINE] | Not Active | Not Active | Not Active | Not Active | Not Active | Not Active | Not Active | Not Active | Not Active | Not Active | Not Active | Not Active | Not Active | – | –
6 | Cc1cc(C)nc(NS(=O)(=O)c2ccc(N)cc2)n1 [SULFAMETHAZINE] | Not Active | Not Active | Not Active | Not Active | Not Active | Not Active | Not Active | Not Active | Not Active | Not Active | Not Active | Not Active | Not Active | – | –
7 | C[C@]1(Cn2ccnn2)[C@H](C(=O)O)N2C(=O)C[C@H]2S1(=O)=O [TAZOBACTAM] | Not Active | Not Active | Not Active | Not Active | Not Active | Not Active | Not Active | Not Active | Not Active | Not Active | Not Active | Not Active | Not Active | – | –
8 | CN1C(C(=O)Nc2ccccn2)=C(O)c2sccc2S1(=O)=O [TENOXICAM] | Not Active | Not Active | Not Active | Not Active | Not Active | Not Active | Not Active | Not Active | – | Not Active | Not Active | Not Active | Not Active | 1140 | –
9 | O=C1CCC(N2C(=O)c3ccccc3C2=O)C(=O)N1 (stereo unspecified) [THALIDOMIDE] | Not Active | Not Active | Not Active | Not Active | Not Active | Not Active | Not Active | Not Active | Not Active | Not Active | Not Active | Not Active | Not Active | – | –
10 | Cc1cccc(Nc2ccncc2S(=O)(=O)NC(=O)NC(C)C)c1 [TORSEMIDE] | Not Active | Not Active | Not Active | Not Active | Not Active | Not Active | Not Active | Not Active | Not Active | Not Active | Not Active | Not Active | Not Active | – | –
11 | CC(C)C[C@H](NC(=O)[C@@H](O)[C@H](N)Cc1ccccc1)C(=O)O [UBENIMEX] | Not Active | Not Active | Not Active | Not Active | Not Active | Not Active | Not Active | Not Active | Not Active | Not Active | Not Active | Not Active | Not Active | – | –
12 | Cc1onc(-c2ccccc2)c1-c1ccc(S(N)(=O)=O)cc1 [VALDECOXIB] | Not Active | Not Active | Not Active | Not Active | Not Active | Not Active | Not Active | Not Active | Not Active | Not Active | Not Active | Not Active | – | – | Not Active
